# Where two headings read alike, the source gives them in different places.
# How the values were obtained:
# [1] = test system: K-562; test: Inhibition of cells growth by colorimetric assay (SRB); conditions: Homo sapiens, K562, 48 h
# How it was run: (§1)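 Colorimetric SRB read (490 nm) on triplicate wells after 48 h at 37 °C, 5% CO2. Dose range 10 to 10^−8 μg/ml; 5×10^3 cells/well pre-attached 18 h.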
# [2] = test system: LoVo-Dox; test: as above; conditions: Homo sapiens, 48 h
# How it was run: as §1
# [3] = test system: HeLa-APL; test: as above; conditions: Homo sapiens, 48 h
# How it was run: as §1
# [4] = test system: IGROV-1; test: as above; conditions: Homo sapiens, IGROV-1, 48 h
# How it was run: as §1
# [5] = test system: PANC-1; test: as above; conditions: Homo sapiens, PANC-1, 48 h
# How it was run: as §1
# [6] = test system: LNCaP; test: as above; conditions: Homo sapiens, LNCaP, 48 h
# How it was run: as §1
# [7] = test system: HeLa; test: as above; conditions: Homo sapiens, HeLa, 48 h
# How it was run: as §1
# [8] = test system: IGROV-ET; test: as above; conditions: Homo sapiens, 48 h
# How it was run: as §1
# [9] = test system: SK-MEL-28; test: as above; conditions: Homo sapiens, SK-MEL-28, 48 h
# How it was run: as §1
# [10] = test system: DU-145; test: as above; conditions: Homo sapiens, DU-145, 48 h
# How it was run: as §1
# [11] = test system: SK-BR-3; test: as above; conditions: Homo sapiens, SK-BR-3, 48 h
# How it was run: as §1
# [12] = test system: A-549; test: cells; conditions: Homo sapiens, A549, 48 h
# How it was run: as §1
# [13] = test system: LoVo; test: cells; conditions: Homo sapiens, LoVo, 48 h
# How it was run: as §1
# [14] = test system: HT-29; test: cells; conditions: Homo sapiens, HT-29, 48 h
# How it was run: as §1
smiles,measurement,setting,value
COc1c(C)cc2c(c1O)[C@H]1N[C@@H](C2)[C@H](C#N)N2C1[C@@H]1SCC(NC(=O)C(F)(F)F)C(=O)OC[C@H]2c2c3c(c(C)c(OC(C)=O)c21)OCO3 (stereo partly drawn) [compound 31],GI50,[1]; read-out: GI50 K562,0.226 nM
same,CC50,[1]; read-out: LC50 K562,126 nM
same,IC (TGI),[1]; read-out: TGI K562,0.792 nM
same,GI50,[2]; read-out: GI50 LOVO-DOX,9.05 nM
same,CC50,[2]; read-out: LC50 LOVO-DOX,7210 nM
same,IC (TGI),[2]; read-out: TGI LOVO-DOX,1480 nM
same,GI50,[3]; read-out: GI50 HELA-APL,0.576 nM
same,CC50,[3]; read-out: LC50 HELA-APL,9.96 nM
same,IC (TGI),[3]; read-out: TGI HELA-APL,1.96 nM
same,GI50,[4]; read-out: GI50 IGROV,0.413 nM
same,CC50,[4]; read-out: LC50 IGROV,12.6 nM
same,IC (TGI),[4]; read-out: TGI IGROV,1.07 nM
same,GI50,[5]; read-out: GI50 PANC-1,0.807 nM
same,CC50,[5]; read-out: LC50 PANC-1,1770 nM
same,IC (TGI),[5]; read-out: TGI PANC-1,6.68 nM
same,GI50,[6]; read-out: GI50 LNCAP,0.419 nM
same,CC50,[6]; read-out: LC50 LNCAP,90.7 nM
same,IC (TGI),[6]; read-out: TGI LNCAP,16.3 nM
same,GI50,[7]; read-out: GI50 HELA,0.678 nM
same,CC50,[7]; read-out: LC50 HELA,11.2 nM
same,IC (TGI),[7]; read-out: TGI HELA,2.04 nM
same,GI50,[8]; read-out: GI50 IGROV-ET,2.91 nM
same,CC50,[8]; read-out: LC50 IGROV-ET,2090 nM
same,IC (TGI),[8]; read-out: TGI IGROV-ET,7.49 nM
same,GI50,[9]; read-out: GI50 MEL-28,0.832 nM
same,CC50,[9]; read-out: LC50 MEL-28,8.06 nM
same,IC (TGI),[9]; read-out: TGI MEL-28,2.54 nM
same,GI50,[10]; read-out: GI50 DU145,0.444 nM
same,CC50,[10]; read-out: LC50 DU145,2230 nM
same,IC (TGI),[10]; read-out: TGI DU145,0.951 nM
same,GI50,[11]; read-out: GI50 SK-BR3,0.396 nM
same,CC50,[11]; read-out: LC50 SK-BR3,60.7 nM
same,IC (TGI),[11]; read-out: TGI SK-BR3,1.22 nM
same,GI50,[12]; read-out: GI50 A549,1.83 nM
same,CC50,[12]; read-out: LC50 A549,92.1 nM
same,IC (TGI),[12]; read-out: TGI A549,5.97 nM
same,GI50,[13]; read-out: GI50 LOVO,0.688 nM
same,CC50,[13]; read-out: LC50 LOVO,1820 nM
same,IC (TGI),[13]; read-out: TGI LOVO,3.49 nM
same,GI50,[14]; read-out: GI50 HT29,1.97 nM
same,CC50,[14]; read-out: LC50 HT29,3680 nM
same,IC (TGI),[14]; read-out: TGI HT29,16.2 nM
COc1ccc2[nH]c3c(c2c1)CCN[C@]31CS[C@@H]2c3c(OC(C)=O)c(C)c4c(c3[C@H](COC1=O)N1C2[C@@H]2N[C@@H](Cc3cc(C)c(OC)c(O)c32)[C@@H]1C#N)OCO4 (stereo partly drawn) [compound 60],GI50,[1]; read-out: K562 GI50,0.809 nM
same,CC50,[1]; read-out: K562 LC50,8570 nM
same,IC (TGI),[1]; read-out: K562 TGI,13.2 nM
same,GI50,[2]; read-out: LOVO-DOX GI50,163 nM
same,CC50,[2]; read-out: LOVO-DOX LC50,12800 nM
same,IC (TGI),[2]; read-out: LOVO-DOX TGI,757 nM
same,GI50,[3]; read-out: HELA-APL GI50,1.37 nM
same,CC50,[3]; read-out: HELA-APL LC50,9.27 nM
same,IC (TGI),[3]; read-out: HELA-APL TGI,3.58 nM
same,GI50,[4]; read-out: IGROV GI50,1.38 nM
same,CC50,[4]; read-out: IGROV LC50,11.8 nM
same,IC (TGI),[4]; read-out: IGROV TGI,4.03 nM
same,GI50,[5]; read-out: PANC-1 GI50,3.31 nM
same,CC50,[5]; read-out: PANC-1 LC50,12800 nM
same,IC (TGI),[5]; read-out: PANC-1 TGI,11.9 nM
same,GI50,[6]; read-out: LNCAP GI50,0.415 nM
same,CC50,[6]; read-out: LNCAP LC50,5.03 nM
same,IC (TGI),[6]; read-out: LNCAP TGI,1.42 nM
same,GI50,[7]; read-out: HELA GI50,1.03 nM
same,CC50,[7]; read-out: HELA LC50,12.8 nM
same,IC (TGI),[7]; read-out: HELA TGI,3.41 nM
same,GI50,[8]; read-out: IGROV-ET GI50,20.9 nM
same,CC50,[8]; read-out: IGROV-ET LC50,2890 nM
same,IC (TGI),[8]; read-out: IGROV-ET TGI,53.1 nM
same,GI50,[9]; read-out: MEL-28 GI50,1.91 nM
same,CC50,[9]; read-out: MEL-28 LC50,9.55 nM
same,IC (TGI),[9]; read-out: MEL-28 TGI,4.27 nM
same,GI50,[10]; read-out: DU145 GI50,1.8 nM
same,CC50,[10]; read-out: DU145 LC50,7130 nM
same,IC (TGI),[10]; read-out: DU145 TGI,1360 nM
same,GI50,[11]; read-out: SK-BR3 GI50,0.431 nM
same,CC50,[11]; read-out: SK-BR3 LC50,42.2 nM
same,IC (TGI),[11]; read-out: SK-BR3 TGI,1.22 nM
same,GI50,[12]; read-out: A549 GI50,3.6 nM
same,CC50,[12]; read-out: A549 LC50,76 nM
same,IC (TGI),[12]; read-out: A549 TGI,13.1 nM
same,GI50,[13]; read-out: LOVO GI50,3.27 nM
same,CC50,[13]; read-out: LOVO LC50,2900 nM
same,IC (TGI),[13]; read-out: LOVO TGI,8.23 nM
same,GI50,[14]; read-out: HT29 GI50,2.28 nM
same,CC50,[14]; read-out: HT29 LC50,12800 nM
same,IC (TGI),[14]; read-out: HT29 TGI,13.1 nM

# Reference: patent US7767659B2, “Synthesis of naturally occurring ecteinascidins and related compounds” (Pharma Mar, S.A., priority 2002, dated 2010)
